# Measurements: ChEMBL document CHEMBL4257227, “Deubiquitinase inhibitors and methods for use of the same” (2016)
# Calls of active or inactive are those of the source. No cut-off for these calls is given here.
# Key:
# A-375 [1] = test: Induction of apoptosis in human A375 cells with USP5 knock down by annexin V staining based flow cytometry; assay type: functional
# A-375 [2] = test: Induction of apoptosis in human A375 cells with USP5 knock down assessed as increase in p53 protein expression; assay type: functional, cell-based
# A-375 [3] = test: Induction of apoptosis in human A375 cells with USP5 knock down assessed as increase in FAS protein expression; assay type: functional, cell-based
# A-375 [4] = test: Induction of apoptosis in human A375 cells with USP5 knock down assessed as increase in Bax protein expression; assay type: functional, cell-based
# A-375 [5] = test: Induction of apoptosis in human A375 cells with USP5 knock down assessed as increase in Bid protein expression; assay type: functional, cell-based
# A-375 [6] = test: Induction of apoptosis in human A375 cells with USP5 knock down assessed as increase in PARP cleavage; assay type: functional, cell-based
# A-375 [7] = test: Induction of apoptosis in human A375 cells with USP5 and p53 knock down assessed as increase in p53 protein expression; assay type: functional, cell-based
# A-375 [8] = test: Induction of apoptosis in human A375 cells with USP5 and p53 knock down assessed as increase in FAS protein expression; assay type: functional, cell-based
# A-375 [9] = test: Induction of apoptosis in human A375 cells with USP5 and p53 knock down assessed as increase in Bax protein expression; assay type: functional, cell-based
# A-375 [10] = test: Induction of apoptosis in human A375 cells with USP5 and p53 knock down assessed as increase in Bid protein expression; assay type: functional, cell-based
# A-375 [11] = test: Induction of apoptosis in human A375 cells with USP5 and p53 knock down assessed as increase in PARP cleavage; assay type: functional, cell-based
# SK-MEL19 [12] = test: Increase in protein ubiquitination in human SK-MEL-19 cells after 24 hrs; assay type: functional, cell-based
# SK-MEL19 [13] = test: Increase in FAS protein expression in human SK-MEL-19 cells after 24 hrs; assay type: functional, cell-based
# SK-MEL19 [14] = test: Increase in FASBax protein expression in human SK-MEL-19 cells after 24 hrs; assay type: functional, cell-based
# SK-MEL19 [15] = test: Induction of apoptosis in human SK-MEL-19 cells assessed as increase in caspase 8 cleavage after 48 to 72 hrs; assay type: functional, cell-based
# SK-MEL19 [16] = test: Induction of apoptosis in human SK-MEL-19 cells assessed as increase in PARP cleavage after 48 to 72 hrs; assay type: functional, cell-based
# SK-MEL19 [17] = test: Induction of apoptosis in human SK-MEL-19 cells assessed as increase in Bid protein level after 48 to 72 hrs; assay type: functional, cell-based
# SK-MEL19 [18] = test: Reduction in DRS levels in human SK-MEL-19 cells; assay type: functional, cell-based
# A-375 [19] = test: Induction of FAS protein expression in Vemurafenib resistant human A375 cells; assay type: functional, cell-based
# A-375 [20] = test: Ratio of IC50 for human A375 cells with USP5 knock down to IC50 for human A375 cells; assay type: functional
# [21] = Half life in ip dosed Balb/c mouse by LC-MS analysis; assay type: ADME, organism-based; settings: in vivo
# [22] = Plasma concentration in Balb/c mouse at 5 mg/kg, iv after 0.5 hrs by LC-MS analysis; assay type: ADME, organism-based
# [23] = Plasma concentration in Balb/c mouse at 5 mg/kg, iv after 2 hrs by LC-MS analysis; assay type: ADME, organism-based
# [24] = Plasma concentration in Balb/c mouse at 5 mg/kg, iv after 4 hrs by LC-MS analysis; assay type: ADME, organism-based
# [25] = Plasma concentration in Balb/c mouse at 5 mg/kg, iv after 7 hrs by LC-MS analysis; assay type: ADME, organism-based
# [26] = AUClast in Balb/c mouse at 5 mg/kg, iv by LC-MS analysis; assay type: ADME, organism-based; parameters: dose 5 mg/kg, time 0 - last, route intravenous; settings: in vivo
# [27] = Plasma concentration in Balb/c mouse at 10 mg/kg, po after 0.5 hrs by LC-MS analysis; assay type: ADME, organism-based
# [28] = Plasma concentration in Balb/c mouse at 10 mg/kg, po after 2 hrs by LC-MS analysis; assay type: ADME, organism-based
# [29] = Plasma concentration in Balb/c mouse at 10 mg/kg, po after 7 hrs by LC-MS analysis; assay type: ADME, organism-based
# [30] = AUClast in Balb/c mouse at 10 mg/kg, po by LC-MS analysis; assay type: ADME, organism-based; parameters: dose 10 mg/kg, route oral, time 0 - last; settings: in vivo
# [31] = Plasma concentration in Balb/c mouse at 10 mg/kg, po after 4 hrs by LC-MS analysis; assay type: ADME, organism-based
smiles,measurement,setting,value
CCCS(=O)(=O)Nc1ccc(F)c(C(=O)c2c[nH]c3ncc(-c4ccc(Cl)cc4)cc23)c1F [VEMURAFENIB],fold change (FC),A-375 [1],>3
same,Activity,A-375 [2],Active
same,Activity,A-375 [3],Active
same,Activity,A-375 [4],Active
same,Activity,A-375 [5],Active
same,Activity,A-375 [6],Active
same,Activity,A-375 [7],inactive
same,Activity,A-375 [8],inactive
same,Activity,A-375 [9],inactive
same,Activity,A-375 [10],inactive
same,Activity,A-375 [11],inactive
same,Activity,SK-MEL19 [12],Active
same,Activity,SK-MEL19 [13],Active
same,Activity,SK-MEL19 [14],Active
same,Activity,SK-MEL19 [15],Active
same,Activity,SK-MEL19 [16],Active
same,Activity,SK-MEL19 [17],Active
same,Activity,SK-MEL19 [18],Active
same,Activity,A-375 [19],inactive
same,Ratio IC50,A-375 [20],2
CCCC(NC(=O)/C(C#N)=C/c1ccc2cccnc2n1)c1ccccc1 (stereo unspecified),half-life,[21],30 to 60 min
same,concentration at 0.5 h,[22],301 to 397 ng/mL
same,concentration at 2 h,[23],79.6 to 99.1 ng/mL
same,concentration at 4 h,[24],33.4 to 63.1 ng/mL
same,concentration at 7 h,[25],33.7 to 71.4 ng/mL
same,AUC(0-t),[26],692 to 993 ng·h/mL
same,concentration at 0.5 h,[27],50.8 to 117 ng/mL
same,concentration at 2 h,[28],10.6 to 40.6 ng/mL
same,concentration at 7 h,[29],11.4 to 15.9 ng/mL
same,AUC(0-t),[30],126 to 280 ng·h/mL
same,concentration at 4 h,[31],13.3 to 30 ng/mL
